Measured values from ChEMBL document CHEMBL1154214, “Scalarane sesterterpenoids: semisynthesis and biological activity” (J Nat Prod, 2009).
pIC50: −log10 of the molar value.

How the values were obtained:
SK-MEL = test: Cytotoxicity against human SK-MEL cells after 48 hrs by Neutral red assay; assay type: functional, cell-based; details: for IC50: sk-mel; for pIC50: Homo sapiens, SK-MEL, 48 h, read-out: IC50
[1] = tested on: Mycobacterium intracellulare; test: Antimicrobial activity against […] Mycobacterium intracellular ATCC 23068; assay type: functional, organism-based; details: for pIC50: Mycobacterium intracellulare, ATCC 23068
SK-OV-3 = test: Cytotoxicity against human SKOV3 cells after 48 hrs by Neutral red assay; assay type: functional, cell-based; details: for IC50: sk-ov-3; for pIC50: Homo sapiens, SK-OV-3, 48 h, read-out: IC50
Vero = test: Cytotoxicity against african green monkey Vero cells after 48 hrs by Neutral red assay; assay type: cell-based, Chlorocebus sabaeus; details: for IC50: vero; for pIC50: Chlorocebus sabaeus, Vero, 48 h, read-out: IC50
Staphylococcus aureus = test: Antimicrobial activity against methicillin resistant Staphylococcus aureus ATCC 43300; assay type: functional, organism-based; details: for pIC50: Staphylococcus aureus, ATCC 43300, read-out: IC50
BT-549 = test: Cytotoxicity against human BT549 cells after 48 hrs by Neutral red assay; assay type: functional, cell-based; details: for IC50: bt-549; for pIC50: Homo sapiens, BT-549, 48 h, read-out: IC50

Row | SMILES | IC50 (SK-MEL) | IC50 [1] | IC50 (SK-OV-3) | IC50 (Vero) | IC50 (Staphylococcus aureus) | IC50 (BT-549) | pIC50 (SK-MEL) | pIC50 (SK-OV-3) | pIC50 (Vero) | pIC50 (Staphylococcus aureus) | pIC50 (BT-549) | pIC50 ([1]; read-out: IC50) | pIC50 [1]
1 | CC1(C)CCC[C@]2(C)[C@H]3C[C@@H](O)[C@]4(C)C(CO)C(CO)=CC[C@H]4[C@]3(C)CC[C@@H]12 (some centres undefined) | Not Active | Not Active | Not Active | Not Active | Not Active | Not Active | – | – | – | – | – | – | –
2 | CC(=O)O[C@@H]1C[C@@H]2[C@@]3(C)CCCC(C)(C)[C@@H]3CC[C@@]2(C)[C@@H]2CC=C(C=O)[C@H](C=O)[C@@]12C | – | Not Active | – | – | – | – | < 4.37 | 4.63 | 4.65 | 5.20 | 4.68 | – | –
3 | CC1(C)CCC[C@]2(C)[C@H]3CC(=O)[C@]4(C)[C@H](C=O)C(C=O)=CC[C@H]4[C@]3(C)CC[C@@H]12 | – | Not Active | – | – | – | – | 4.84 | 4.51 | 4.81 | 4.52 | 4.81 | – | –
4 | CO[C@H]1O[C@@H](OC)[C@H]2C1=CC[C@H]1[C@]3(C)CC[C@H]4C(C)(C)CCC[C@]4(C)[C@H]3C[C@@H](O)[C@]21C | Not Active | Not Active | Not Active | Not Active | Not Active | Not Active | – | – | – | – | – | – | –
5 | CO[C@@H]1O[C@@H](OC)[C@H]2C1=CC[C@H]1[C@]3(C)CC[C@H]4C(C)(C)CCC[C@]4(C)[C@H]3C[C@@H](O)[C@]21C | Not Active | Not Active | Not Active | Not Active | Not Active | Not Active | – | – | – | – | – | – | –
6 | CC(=O)O[C@@H]1OCC2[C@@H](OC(C)=O)C[C@H]3[C@]4(C)CC[C@H]5C(C)(C)CCC[C@]5(C)[C@H]4C[C@@H](O)[C@]3(C)[C@H]21 (some centres undefined) | – | Not Active | – | – | Not Active | – | < 4.43 | 4.74 | 4.44 | – | 4.80 | – | –
7 | CC(=O)O[C@@H]1OC=C2[C@@H](OC(C)=O)C[C@H]3[C@]4(C)CC[C@H]5C(C)(C)CCC[C@]5(C)[C@H]4CC(=O)[C@]3(C)[C@H]21 | Not Active | – | – | – | Not Active | – | – | < 4.42 | < 4.42 | – | < 4.42 | 5.29 | –
8 | CC1(C)CCC[C@]2(C)[C@H]3C[C@@H](O)[C@]4(C)c5cocc5C=C[C@H]4[C@]3(C)CC[C@@H]12 | Not Active | Not Active | Not Active | Not Active | Not Active | Not Active | – | – | – | – | – | – | –
9 | CC1(C)CCC[C@]2(C)[C@H]3C[C@@H](O)[C@]4(C)[C@H]5COC(=O)C5=CC[C@H]4[C@]3(C)CC[C@@H]12 | Not Active | Not Active | Not Active | Not Active | Not Active | Not Active | – | – | – | – | – | – | –
10 | CC(=O)O[C@@H]1C[C@@H]2[C@@]3(C)CCCC(C)(C)[C@@H]3CC[C@@]2(C)[C@@H]2CC=C3C(=O)O[C@@H](O)[C@@H]3[C@@]12C | Not Active | Not Active | Not Active | Not Active | Not Active | Not Active | – | – | – | – | – | – | –
11 | CC1(C)CCC[C@]2(C)[C@H]3C[C@@H](O)[C@]4(C)[C@H](C=O)C(C=O)=CC[C@H]4[C@]3(C)CC[C@@H]12 | – | Not Active | – | – | – | – | 4.73 | 4.71 | 4.68 | 5.42 | 4.89 | – | –
12 | CC1(C)CCC[C@]2(C)[C@H]3C[C@@H](O)[C@]4(C)[C@@H](C=O)C(C=O)=CC[C@H]4[C@]3(C)CC[C@@H]12 | – | – | – | – | – | – | 4.58 | 4.51 | 4.71 | 4.66 | 4.71 | 4.41 | –
13 | CC1(C)CCC[C@]2(C)[C@H]3CC(=O)[C@]4(C)[C@@H](C=O)C(C=O)=CC[C@H]4[C@]3(C)CC[C@@H]12 | – | Not Active | – | – | – | – | 4.84 | 4.38 | 4.74 | 4.56 | 4.81 | – | –
14 | CO[C@@H]1C[C@H]2[C@]3(C)CC[C@H]4C(C)(C)CCC[C@]4(C)[C@H]3C[C@@H](O)[C@]2(C)c2cocc21 [16-O-METHYLSESTERSTATIN 4] | Not Active | Not Active | Not Active | Not Active | Not Active | Not Active | – | – | – | – | – | – | –
15 | O=C(O)c1cn(C2CC2)c2cc(N3CCNCC3)c(F)cc2c1=O [CIPROFLOXACIN] | – | – | – | – | – | – | – | – | – | 6.85 | – | – | 6.33
16 | COc1cccc2c1C(=O)c1c(O)c3c(c(O)c1C2=O)C[C@@](O)(C(=O)CO)C[C@@H]3O[C@H]1C[C@H](N)[C@H](O)[C@H](C)O1 [DOXORUBICIN] | – | – | – | – | – | – | 5.92 | 6.10 | 5.20 | – | 5.92 | – | –
17 | CC(=O)O[C@@H]1OC=C2[C@@H](OC(C)=O)C[C@H]3[C@]4(C)CC[C@H]5C(C)(C)CCC[C@]5(C)[C@H]4C[C@@H](OC(C)=O)[C@]3(C)[C@H]21 [HETERONEMIN ACETATE] | – | – | – | – | Not Active | – | 4.78 | 4.73 | 5.05 | – | 4.73 | 4.73 | –
18 | CC(=O)O[C@@H]1OC=C2[C@@H](OC(C)=O)C[C@H]3[C@]4(C)CC[C@H]5C(C)(C)CCC[C@]5(C)[C@H]4C[C@@H](O)[C@]3(C)[C@H]21 [HETERONEMIN] | – | – | – | – | Not Active | – | 4.82 | 5.47 | 5.09 | – | 4.95 | 5.69 | –
19 | CC(=O)O[C@H]1C[C@H]2[C@]3(C)CC[C@H]4C(C)(C)CCC[C@]4(C)[C@H]3C[C@@H](O)[C@]2(C)c2cocc21 [SCALARAFURAN] | Not Active | Not Active | Not Active | Not Active | Not Active | Not Active | – | – | – | – | – | – | –
20 | CC1(C)CCC[C@]2(C)[C@H]3C[C@@H](O)[C@]4(C)c5cocc5[C@@H](O)C[C@H]4[C@]3(C)CC[C@@H]12 [SESTERSTATIN 5] | Not Active | Not Active | Not Active | Not Active | Not Active | Not Active | – | – | – | – | – | – | –
